Test results reported in US5496805A, “Inhibitors of neutral endopeptidase” (priority 1990, dated 1996).
Ends that are not written are not given here.

Columns and labels:
[1] = test system: conscious spontaneously hypertensive rats (SHR); experiment: enhancement of the depressor response to exogenous ANP 99-126 in conscious spontaneously hypertensive rats (SHR); type: in vivo, rat (male SHR); conditions: intravenous, 30 minutes before 3 nmole/kg. ANP 99-126; dose to increase the area under the blood pressure over time curve to 600 mm Hg. X minute
Procedure: The capacity of the test compounds to enhance the depressor response to exogenous ANP 99-126 in conscious spontaneously hypertensive rats (SHR) is determined according to the following procedure.
Indwelling vascular catheters are implanted in the abdominal aorta and vena cava of male SHR rats using the methods of Weeks et al. The rat is allowed at least one week recovery time. On the day of the experiment, the aortic catheter is opened and attached to a Statham transducer via a 3-way stream divider. This system allows for a continuous slow infusion of saline (approximately 10 to 15 μl/min.) from a pressurized reservoir to maintain patency of the arterial catheter. Mean arterial pressure (MAP) is continuously monitored on a strip-chart recorder.
Two hours after beginning the blood pressure measurements, the test compound (or the vehicle used to dissolve the compound) is injected intravenously (1.0 ml./kg.) and flushed in with 0.3 ml. of saline. 30 minutes later, a challenge of 3 nmole/kg. of ANP 99-126 is delivered (1.0 ml./kg. +0.3 ml. saline flush). Sufficient time is allowed after the ANP 99-126 injection to observe the maximal depressor response and a 50% recovery.
MAP is determined before ANP 99-126 administration and at 5 minute intervals until the blood pressure recovers by at least 50%. A mathematical model is used to calculate the area under the curve which extends from the time that the MAP falls to 50% of the maximal depressor response to the time of 50% recovery. Results are plotted as the log dose of inhibitor vs. the area under the curve.
The ED600 is the dose required to increase the area under the blood pressure over time curve for exogenous ANP to 600 mm Hg. X minute.

[2] = test system: conscious mineralocorticoid hypertensive rats; experiment: depressor response in conscious mineralocorticoid hypertensive rats; type: in vivo, rat (male Sprague-Dawley); conditions: dose 300 μmole/kg., intravenous; DOCA hypertensive rats; MAP recorded for at least 4 hours
Procedure: The depressor response to test compounds in conscious mineralocorticoid hypertensive rats is determined according to the following procedure.
Male Sprague-Dawley rats (approximately 150 grams) are anesthetized with sodium pentobarbital and indwelling vascular catheters are implanted in the abdominal aorta and vena cava using the methods of Weeks et al., Biological Medicine, Vol. 104, p. 646 (1960).
Before closing the abdominal incision, a pellet containing 100 mg. of deoxycorticosterone acetate (DOCA) is placed in the peritoneal cavity. DOCA is released from the pellet at a constant rate for 21 days.
The rats are housed individually and given saline (0.9% sodium chloride) to drink and fed normal rat chow for the next 3 to 4 weeks. Afterwards, the catheters are opened and mean arterial pressure (MAP) is measured via a Statham pressure transducer and a strip chart recorder. Patency of the arterial catheter is maintained by the infusion of saline from a pressurized reservoir at approximately 10 to 15 μl/min.
Following 2 hours of acclimation, the test compound is injected intravenously. Each dose is delivered as 1.0 ml./kg. +0.03 ml. (an amount sufficient to fill the void volume of the catheter). The MAP is recorded for at least 4 hours.

[3] = biological target: T1, neutral endopeptidase (Rattus norvegicus, UniProt P07861); experiment: biochemical; conditions: enzyme purified from rat kidney; Dns-Gly-Phe-Arg 0.5 mM; pH 7.5; 37°, 30 minutes; inhibitor preincubated 10 minutes
T1 sequence (P07861 1-750): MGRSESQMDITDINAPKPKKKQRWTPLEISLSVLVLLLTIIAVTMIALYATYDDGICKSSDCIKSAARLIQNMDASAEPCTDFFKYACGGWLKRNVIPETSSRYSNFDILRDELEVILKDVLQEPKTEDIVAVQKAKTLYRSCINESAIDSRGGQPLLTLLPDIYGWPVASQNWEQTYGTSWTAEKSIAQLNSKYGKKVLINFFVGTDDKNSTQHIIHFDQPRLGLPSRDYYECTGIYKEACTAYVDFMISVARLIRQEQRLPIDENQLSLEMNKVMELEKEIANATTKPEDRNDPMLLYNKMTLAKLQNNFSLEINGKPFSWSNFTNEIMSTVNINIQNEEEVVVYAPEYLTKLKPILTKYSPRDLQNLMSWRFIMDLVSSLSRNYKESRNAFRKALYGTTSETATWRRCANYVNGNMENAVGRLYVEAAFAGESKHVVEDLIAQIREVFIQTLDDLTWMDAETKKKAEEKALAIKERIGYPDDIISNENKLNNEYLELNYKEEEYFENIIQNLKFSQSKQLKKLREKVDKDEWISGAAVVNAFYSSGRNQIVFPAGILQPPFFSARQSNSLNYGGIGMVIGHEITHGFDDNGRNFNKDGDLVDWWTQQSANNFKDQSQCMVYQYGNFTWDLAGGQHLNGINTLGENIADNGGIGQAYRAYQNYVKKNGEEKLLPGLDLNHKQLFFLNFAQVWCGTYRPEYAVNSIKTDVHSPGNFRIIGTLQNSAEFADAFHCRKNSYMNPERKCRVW
Procedure: The in vitro neutral endopeptidase activity is determined using a fluorometric assay procedure. The assay is based upon the cleavage of the fluorescent dansylated tripeptide Dns-Gly-Phe-Arg to form Dns-Gly. The latter is extracted from the acidified mixture by ethyl acetate and is strongly fluorescent.
The incubation mixture employed for the assay contains the substance Dns-Gly-Phe-Arg (0.5 mM), tris(hydroxymethyl)aminomethane -HCl buffer (pH 7.5, 50 mM), an enzyme preparation in 0.05% Triton X-100, and water or inhibitor diluted to a final volume of 0.25 ml. The enzyme preparation is purified from rat kidney according to the procedure described by Almenoff et al. in Biochemistry Vol. 22, p. 590-599 (1983). The inhibitor is preincubated for 10 minutes with the enzyme preparation and buffer before the reaction is initiated by the addition of the substrate. Incubation is carried out at 37° for 30 minutes and the reaction is stopped by the addition of 0.25 ml. 1N HCl and extraction of the Dns-Gly product into 1.5 ml. of ethyl acetate. Relative fluorescent intensity (RFI) of the ethyl acetate extract is measured using a Ferrand Spectofluorometer at excitation and emission wavelengths of 342 and 508 nm., respectively, corrected for the RFI of a zero-time control, and compared with assays lacking inhibitor.
Runs are made at different concentrations of test compound and by use of a mathematical model the IC50 is determined. The IC50 is the concentration of test compound that inhibits activity of the enzyme by 50%.

[4] = test system: conscious spontaneously hypertensive rats; experiment: renal function (sodium excretion) following intravenous administration of test compounds; type: in vivo, rat
Procedure: The renal function following administration of test compounds is determined according to the following procedure.
A catheter is contructed as follows. Pieces of 18 gauge metal tubing (about 1/4 inch in length) are inserted into two lengths of microbore Tygon tubing (0.04 inch inner diameter ×0.07 inch outer diameter). A short segment of Tygon tubing of larger diameter (0.104 inch inner diameter x 0.144 inch outer diameter) is sealed around both metal fittings. This end is to be implanted in the bladder. In order to keep the tip from becoming plugged by particulate matter, 4 holes are punched along its length.
To implant the catheters, male rats are anesthetized with sodium pentobarbital and the urinary bladder is exposed via a midline abdominal incision. A small slit is made in the dome of the urinary bladder and the tip of the catheter is inserted into the lumen. […]
During the course of the experiment, urine is collected in tared containers at specified intervals. Urine volume is determined gravimetrically (1 gram =1 ml.) and the rate of flow is calculated from the total volume/time of collection (ml./min). Sodium concentrations are measured using a Nova-1 Ion Selective Electrode Analyzer. Electrolyte excretion rates (μ Eq./min.) are calculated by multiplying the ion concentration (μ Eq./ml.) by the urine flow (mi./min.). […]

[5] = test system: pig kidney microvillar membranes; conditions: in vitro; cited from earlier work
[6] = test system: neutral endopeptidase; conditions: in vivo; cited from earlier work
[7] = test system: neutral endopeptidase; experiment: inhibition of neutral endopeptidase; type: biochemical
[8] = test system: enkephalinase; conditions: cited from earlier work
[9] = test system: man; conditions: cited from earlier work

IC50 [3] [nM]	Molecule	ED600 [1] [µmol/kg]	Change in MAI [2]	further results
6	C[C@H](NC(=O)C(CS)Cc1ccccc1)C(=O)N1CCC[C@H]1C(=O)O (mixture of isomers) [Example 64, (±)-1-[N-[2-(Mercaptomethyl)-1-oxo-3-phenylpropyl]-L-alanyl]-L-proline]	–	-44 ± 5 mm. of Hg.	–
15	C[C@H](CS)C(=O)N[C@@H](Cc1ccccc1)C(=O)O [Example 39, (S)-N-(3-Mercapto-2-methyl-1-oxopropyl)-L-phenylalanine]	–	-55 ± 4 mm. of Hg.	–
26	O=C(O)CCCCCCNC(=O)C(CS)Cc1ccccc1 (centres unmarked) [Example 52, 7-[[2-(Mercaptomethy1)-1-oxo-3-phenylpropyl]amino]-heptanoic acid]	15.5	-41 ± 8 mm. of Hg.	increase in the rate of sodium excretion ([4]; intravenous 30 mg./kg. plus 3 mg./kg./min. for 20 minutes, conscious spontaneously hypertensive rats): 2.6 fold
78	C[C@H](NC(=O)[C@@H](S)Cc1ccccc1)C(=O)N1CCC[C@H]1C(=O)O [Example 66, (S)-1-[N-(2-Mercapto-1-oxo-3-phenylpropyl)-L-alanyl]-L-proline]	2.93	–	–
3.8	CC(C)C[C@H](NP(=O)(O)O[C@@H]1O[C@@H](C)[C@H](O)[C@@H](O)[C@H]1O)C(=O)N[C@@H](Cc1c[nH]c2ccccc12)C(=O)O [Example 72, N-(α-L-Rhamnopyranosyloxyhydroxyphosphinyl)-L-leucyl-L-tryptophan]	–	–	hydrolysis of α-human atrial natriuretic peptide [5]: suppressed; excretion of kinins [6]: increased excretion of kinins; sodium excretion [6]: increased sodium excretion; urinary kininase activity [6]: decreased urinary kininase activity; urine volume [6]: increased urine volume; inhibition of neutral endopeptidase [7]: inhibits neutral endopeptidase

Second part, the molecule before the results:

Molecule	IC50 [3] [nM]	ED600 [1] [µmol/kg]	Change in MAI [2]	further results
CC(C)CC(CS)C(=O)N[C@@H](Cc1c[nH]c2ccccc12)C(=O)O (mixture of isomers) [Example 35, (±)-N-[2-(Mercaptomethyl)-4-methyl-1-oxopentyl]-L-tryptophan]	6.9	9.2	-56 ± 3 mm. of Hg.	–
CC(C)C[C@H](NC(=O)C(CS)Cc1ccccc1)C(=O)O (single isomer, unassigned; isomer a) [Example 1, N-[2-(Mercaptomethyl)-1-oxo-3-phenylpropyl]-L-leucine (Isomer A)]	–	22.8	-65 ± 14 mm. of Hg.	increase in sodium excretion ([4]; intravenous 100 mg./kg.): 2.4 fold
CC(C)C[C@H](NC(=O)C(CS)Cc1ccccc1)C(=O)O (single isomer, unassigned; isomer b) [Example 36, N-[2-(Mercaptomethyl)-1-oxo-3-phenylpropyl]-L-leucine (isomer B)]	–	8.22	–	–
O=C(O)CNC(=O)C(CS)Cc1ccccc1 (centres unmarked) [thiorphan, [(D,L)-3-mercapto-2-benzylpropanol]glycine]	–	–	–	inhibitor of enkephalinase in vitro [8]: nanomolar concentrations
human ANF 99-126: putative circulating hormone in man, a 28 amino acid peptide called human ANF 99-126 (SLRRSSCFGGRMDRIGAQSGLGCNSFRY; ends and bridges not checked; cysteine pairing not given here; UniProt P01160 124-151, looked up)	–	–	–	effect of exogenous administration to man [9]: diuresis, natriuresis, and a fall in blood pressure
